Test results from ChEMBL document CHEMBL3217675, “Diaryl ureaLDV peptidomimetics as 41integrin antagonists: synthesis, adhesion inhibition and toxicity evaluation on CCRF-CEM cell line” (Medchemcomm, 2012).
Activity calls are given as the source filed them. No cut-off for these calls is given here.

What was measured:
Integrin alpha-4/beta-1 [1] = molecular target: T1, Integrin alpha-4/beta-1 (Homo sapiens, UniProt P05556+P13612); test: Antagonist activity at integrin alpha4beta1 receptor in human CCRF-CEM cells assessed as inhibition of cell adhesion to fibronectin after 1 hr by calcein AM staining-based fluorescence assay
T1 sequence (P05556 whole entry): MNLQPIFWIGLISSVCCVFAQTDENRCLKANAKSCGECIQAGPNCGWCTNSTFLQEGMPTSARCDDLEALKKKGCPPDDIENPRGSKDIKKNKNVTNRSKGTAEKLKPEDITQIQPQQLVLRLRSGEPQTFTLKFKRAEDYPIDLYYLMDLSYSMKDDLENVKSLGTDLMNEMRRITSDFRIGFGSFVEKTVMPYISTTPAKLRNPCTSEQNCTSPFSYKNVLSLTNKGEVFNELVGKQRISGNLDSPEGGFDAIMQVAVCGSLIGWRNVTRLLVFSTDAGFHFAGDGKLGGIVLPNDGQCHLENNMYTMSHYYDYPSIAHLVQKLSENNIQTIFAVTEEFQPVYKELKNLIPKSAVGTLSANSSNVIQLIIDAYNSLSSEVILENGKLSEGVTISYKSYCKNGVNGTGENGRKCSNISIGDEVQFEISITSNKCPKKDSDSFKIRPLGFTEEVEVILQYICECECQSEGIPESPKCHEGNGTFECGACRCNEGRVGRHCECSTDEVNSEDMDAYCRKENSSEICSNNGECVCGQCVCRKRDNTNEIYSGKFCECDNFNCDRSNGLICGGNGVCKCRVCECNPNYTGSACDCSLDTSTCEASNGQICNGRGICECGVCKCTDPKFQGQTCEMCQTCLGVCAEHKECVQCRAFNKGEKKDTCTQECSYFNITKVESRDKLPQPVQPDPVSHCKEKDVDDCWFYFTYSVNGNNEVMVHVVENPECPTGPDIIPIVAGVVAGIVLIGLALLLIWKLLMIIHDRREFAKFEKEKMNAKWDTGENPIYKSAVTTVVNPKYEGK
T1 sequence (P13612 whole entry): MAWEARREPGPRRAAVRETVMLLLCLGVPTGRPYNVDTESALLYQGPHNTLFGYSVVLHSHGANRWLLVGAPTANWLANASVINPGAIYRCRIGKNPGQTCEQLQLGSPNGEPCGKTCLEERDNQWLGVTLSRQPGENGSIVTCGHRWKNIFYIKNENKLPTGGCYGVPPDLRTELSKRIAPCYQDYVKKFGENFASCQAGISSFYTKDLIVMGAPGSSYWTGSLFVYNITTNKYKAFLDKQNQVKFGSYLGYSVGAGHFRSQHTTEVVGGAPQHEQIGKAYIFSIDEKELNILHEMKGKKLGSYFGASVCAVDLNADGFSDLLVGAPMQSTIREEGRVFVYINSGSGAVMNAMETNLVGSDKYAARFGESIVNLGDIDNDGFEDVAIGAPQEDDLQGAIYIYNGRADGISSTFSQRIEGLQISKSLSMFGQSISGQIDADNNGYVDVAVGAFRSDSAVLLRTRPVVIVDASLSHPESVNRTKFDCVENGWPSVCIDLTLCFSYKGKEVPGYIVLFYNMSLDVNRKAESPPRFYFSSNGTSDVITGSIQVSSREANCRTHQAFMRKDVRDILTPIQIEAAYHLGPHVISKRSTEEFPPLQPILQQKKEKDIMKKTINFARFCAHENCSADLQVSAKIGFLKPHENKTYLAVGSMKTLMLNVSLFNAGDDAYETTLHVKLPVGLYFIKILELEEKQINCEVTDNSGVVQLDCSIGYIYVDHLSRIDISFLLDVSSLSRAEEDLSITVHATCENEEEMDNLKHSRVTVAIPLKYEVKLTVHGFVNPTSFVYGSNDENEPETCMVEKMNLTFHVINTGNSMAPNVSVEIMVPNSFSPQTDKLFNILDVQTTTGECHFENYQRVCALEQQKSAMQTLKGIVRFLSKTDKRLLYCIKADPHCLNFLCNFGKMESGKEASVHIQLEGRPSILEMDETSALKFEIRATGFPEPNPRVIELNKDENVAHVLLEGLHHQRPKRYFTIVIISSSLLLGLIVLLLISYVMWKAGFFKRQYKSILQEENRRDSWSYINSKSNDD

CCRF-CEM [2] = test: Cytotoxicity against human CCRF-CEM cells assessed as cell viability at 1 to 500 uM after 24 hrs by propidium iodide staining-based flow cytometric analysis
Integrin alpha-4/beta-1 [3] = molecular target: T1, Integrin alpha-4/beta-1; test: Antagonist activity at integrin alpha4beta1 receptor in human CCRF-CEM cells assessed as detachment of adherent cell from fibronectin at 1 to 500 uM after 24 to 48 hrs by MTT assay; format: cell-based
CCRF-CEM [4] = test: Cytotoxicity against human CCRF-CEM cells assessed as cell viability up to 200 uM after 24 hrs by propidium iodide staining-based flow cytometric analysis

Row | SMILES | IC50 (Integrin alpha-4/beta-1 [1]) [µM] | other results
1 | Cc1cccc(C)c1NC(=O)Nc1ccc(CC(=O)Nc2ccc(CCC(=O)O)c(OCC(=O)OC(C)(C)C)c2)cc1 | 190 | 
2 | Cc1cccc(C)c1NC(=O)Nc1ccc(CC(=O)Nc2ccc(OCC(=O)O)c(CCC(=O)OCc3ccc(Cl)cc3)c2)cc1 | 38.9 | 
3 | Cc1cccc(C)c1NC(=O)Nc1ccc(CC(=O)Nc2ccc(OCC(=O)O)c(CCC(=O)NCc3ccccc3)c2)cc1 | 97.7 | 
4 | Cc1cccc(C)c1NC(=O)Nc1ccc(CC(=O)Nc2ccc(OCC(=O)O)c(CCC(=O)OCCc3ccccc3)c2)cc1 | 24.5 | 
5 | N=C(N)NCCC[C@H](NC(=O)CN)C(=O)NCC(=O)N[C@@H](CC(=O)O)C(=O)N[C@@H](CO)C(=O)O | > 1000 | 
6 | Cc1cccc(C)c1NC(=O)Nc1ccc(CC(=O)Nc2ccc(OCC(=O)O)c(CCC(=O)O)c2)cc1 | 81.3 | 
7 | O=C(O)CCc1ccc(NC(=O)Cc2ccc(NC(=O)Nc3ccccc3C(F)(F)F)cc2)cc1O | > 500 | 
8 | COC(=O)[C@@H](NC(=O)[C@H](CC(=O)O)NC(=O)[C@H](CC(C)C)NC(=O)Cc1ccc(NC(=O)Nc2ccccc2C(F)(F)F)cc1)C(C)C | 703 | 
9 | O=C(O)COc1ccc(NC(=O)Cc2ccc(NC(=O)Nc3ccccc3C(F)(F)F)cc2)cc1CCC(=O)OCc1ccccc1 | 33.1 | Activity (CCRF-CEM [4]): Non-toxic
10 | Cc1cccc(C)c1NC(=O)Nc1ccc(CC(=O)Nc2ccc(CCC(=O)OCc3ccccc3)c(OCC(=O)O)c2)cc1 | 81.3 | 
11 | CC(C)(C)OC(=O)COc1cc(NC(=O)Cc2ccc(NC(=O)Nc3ccccc3C(F)(F)F)cc2)ccc1CCC(=O)O | 79.4 | 
12 | Cc1cccc(C)c1NC(=O)Nc1ccc(CC(=O)O)cc1 | > 1000 | 
13 | Cc1cccc(C)c1NC(=O)Nc1ccc(CC(=O)Nc2ccc(OCC(=O)OC(C)(C)C)c(CCC(=O)OCc3ccccc3)c2)cc1 | 102 | 

Continued, in another order:

Row | IC50 (Integrin alpha-4/beta-1 [1]) [µM] | SMILES | other results
14 | 146 | Cc1cccc(C)c1NC(=O)Nc1ccc(CC(=O)Nc2ccc(CCC(=O)O)c(O)c2)cc1 | 
15 | 209 | O=C(O)CCc1cc(NC(=O)Cc2ccc(NC(=O)Nc3ccccc3C(F)(F)F)cc2)ccc1O | 
16 | 64.6 | O=C(O)COc1cc(NC(=O)Cc2ccc(NC(=O)Nc3ccccc3C(F)(F)F)cc2)ccc1CCC(=O)OCc1ccccc1 | Activity (CCRF-CEM [2]): Non-toxic; Activity (Integrin alpha-4/beta-1 [3]): Active
17 | > 1000 | O=C(O)Cc1ccc(NC(=O)Nc2ccccc2C(F)(F)F)cc1 | 
18 | 138 | Cc1cccc(C)c1NC(=O)Nc1ccc(CC(=O)Nc2ccc(O)c(CCC(=O)O)c2)cc1 | 
19 | 106 | Cc1cccc(C)c1NC(=O)Nc1ccc(CC(=O)Nc2ccc(OCC(=O)O)c(CCC(=O)NCCc3ccccc3)c2)cc1 | 
20 | 151 | CC(C)(C)OC(=O)COc1ccc(NC(=O)Cc2ccc(NC(=O)Nc3ccccc3C(F)(F)F)cc2)cc1CCC(=O)O | 
21 | 24.3 | Cc1cccc(C)c1NC(=O)Nc1ccc(CC(=O)Nc2ccc(OCC(=O)O)c(CCC(=O)OCc3ccccc3)c2)cc1 | Activity (CCRF-CEM [2]): Non-toxic; Activity (CCRF-CEM [4]): Non-toxic; Activity (Integrin alpha-4/beta-1 [3]): Active
